Publication PMC7093416, “Selective USP7 inhibition elicits cancer cell killing through a p53-dependent mechanism” (Scientific Reports, 2020)
Several values for one entry are separate records, joined by “and”; a condition that tells them apart may be missing. Equal entries are not always repeated.

Tested on: panel of 484 cancer cell lines
Test: PRISM cancer cell line profiling, 5 days
Format: cell-based
Design: Viability: scale not given here; AUC: unit not given beside the values
Protocol: Cancer cell line profiling was performed using the Broad’s PRISM platform. Cell treatment and data analysis were performed as described in Yu et al[42]. Raw Luminex signal was converted to AUC values for each cell line as described. The resulting AUC profile for each compound was modeled against DepMap using the limma package in R[71]. Because hotspot mutation analysis was performed against DepMap, TP53 annotations in Fig. 6c,d are directly from DepMap.

[1] = GCIY_STOMACH, pert_dose 6.10E-04
[2] = GCT_SOFT_TISSUE, pert_dose 6.10E-04
[3] = GI1_CENTRAL_NERVOUS_SYSTEM, pert_dose 6.10E-04
[4] = GMS10_CENTRAL_NERVOUS_SYSTEM, pert_dose 6.10E-04
[5] = GOS3_CENTRAL_NERVOUS_SYSTEM, pert_dose 6.10E-04
[6] = HCC56_LARGE_INTESTINE, pert_dose 6.10E-04
[7] = HCC366_LUNG, pert_dose 6.10E-04
[8] = HCC1143_BREAST, pert_dose 6.10E-04
[9] = HCC1195_LUNG, pert_dose 6.10E-04
[10] = HCC1359_LUNG, pert_dose 6.10E-04
[11] = HCC1419_BREAST, pert_dose 6.10E-04
[12] = HCC1428_BREAST, pert_dose 6.10E-04
[13] = HCC1438_LUNG, pert_dose 6.10E-04
[14] = HCC1806_BREAST, pert_dose 6.10E-04
[15] = HCC4006_LUNG, pert_dose 6.10E-04
[16] = HCT15_LARGE_INTESTINE, pert_dose 6.10E-04
[17] = HCT116_LARGE_INTESTINE, pert_dose 6.10E-04
[18] = HDQP1_BREAST, pert_dose 6.10E-04

SMILES: COc1ccc(C2=N[C@@H](c3ccc(Cl)cc3)[C@@H](c3ccc(Cl)cc3)N2C(=O)N2CCNC(=O)C2)c(OC(C)C)c1 [Nutlin-3A]
- AUC (FTC238_THYROID): 1.264
- MFI FTC238_THYROID (FTC238_THYROID, pert_dose 6.10E-04): 2880 and 3372 and 2980.5 and 2950.5 and 4003.5
- AUC (G292CLONEA141B1_BONE): 1.148
- AUC (G361_SKIN): 1.031
- MFI G361_SKIN (G361_SKIN, pert_dose 6.10E-04): 10064 and 9507.5 and 5703 and 7102 and 9477
- AUC (G401_SOFT_TISSUE): 0.8138
- AUC (G402_SOFT_TISSUE): 0.8312
- MFI G402_SOFT_TISSUE (G402_SOFT_TISSUE, pert_dose 6.10E-04): 8566 and 7883 and 9123.5 and 10028.5 and 7843.5
- AUC (GAMG_CENTRAL_NERVOUS_SYSTEM): 1.104
- AUC (GB1_CENTRAL_NERVOUS_SYSTEM): 1.08
- MFI GB1_CENTRAL_NERVOUS_SYSTEM (GB1_CENTRAL_NERVOUS_SYSTEM, pert_dose 6.10E-04): 8797 and 10917.5 and 10369 and 11626 and 6173
- AUC (GCIY_STOMACH): 1.0178
- MFI GCIY_STOMACH [1]: 10513.5 and 10287.5 and 8158.5 and 7393 and 6559.5
- Viability [1]: 1.05
- AUC (GCT_SOFT_TISSUE): 1.1243
- MFI GCT_SOFT_TISSUE [2]: 30402 and 32248 and 27974 and 25401 and 26115.5
- Viability [2]: 1.1
- AUC (GI1_CENTRAL_NERVOUS_SYSTEM): 1.1989
- MFI GI1_CENTRAL_NERVOUS_SYSTEM [3]: 7007.5 and 7677 and 5613.5 and 9782 and 8476.5
- Viability [3]: 1.209
- AUC (GMS10_CENTRAL_NERVOUS_SYSTEM): 1.196
- MFI GMS10_CENTRAL_NERVOUS_SYSTEM [4]: 2195 and 3287.5 and 2615 and 2263.5 and 2230
- Viability [4]: 0.8757
- AUC (GOS3_CENTRAL_NERVOUS_SYSTEM): 0.8893
- MFI GOS3_CENTRAL_NERVOUS_SYSTEM [5]: 16506.5 and 12732.5 and 12479 and 15312 and 16884
- Viability [5]: 1.256
- AUC (GP2D_LARGE_INTESTINE): 0.8664
- AUC (H4_CENTRAL_NERVOUS_SYSTEM): 0.8741
- AUC (HARA_LUNG): 1.148
- MFI HARA_LUNG (HARA_LUNG, pert_dose 6.10E-04): 10420 and 10731 and 9850 and 12219 and 8432
- Viability (HARA_LUNG, pert_dose 6.10E-04): 1.156
- AUC (HCC15_LUNG): 1.083
- MFI HCC15_LUNG (HCC15_LUNG, pert_dose 6.10E-04): 10708.5 and 9658 and 9646.5 and 7600 and 8929.5
- AUC (HCC38_BREAST): 1.13
- AUC (HCC44_LUNG): 1.143
- MFI HCC44_LUNG (HCC44_LUNG, pert_dose 6.10E-04): 8858.5 and 14957 and 12427 and 9895 and 9714
- Viability (HCC44_LUNG, pert_dose 6.10E-04): 0.9479
- AUC (HCC56_LARGE_INTESTINE): 1.116
- MFI HCC56_LARGE_INTESTINE [6]: 22390 and 19383.5 and 18019.5 and 16274 and 12370
- Viability [6]: 1.19
- AUC (HCC78_LUNG): 1.129
- MFI HCC78_LUNG (HCC78_LUNG, pert_dose 6.10E-04): 13938.5 and 17123.5 and 16093 and 13546.5 and 12989
- Viability (HCC78_LUNG, pert_dose 6.10E-04): 1.137
- AUC (HCC95_LUNG): 1.133
- MFI HCC95_LUNG (HCC95_LUNG, pert_dose 6.10E-04): 19085 and 17009 and 14223 and 15820 and 14624.5
- Viability (HCC95_LUNG, pert_dose 6.10E-04): 1.3736
- AUC (HCC366_LUNG): 1.1015
- MFI HCC366_LUNG [7]: 3176 and 4976 and 3338 and 4080 and 5551.5
- Viability [7]: 0.8601
- AUC (HCC827_LUNG): 1.216
- AUC (HCC1143_BREAST): 1.173
- MFI HCC1143_BREAST [8]: 10292 and 10056.5 and 12994 and 8725 and 11412
- Viability [8]: 1.09
- AUC (HCC1195_LUNG): 0.9896
- MFI HCC1195_LUNG [9]: 3248 and 2450 and 2557 and 3311 and 2339
- Viability [9]: 0.8066
- AUC (HCC1359_LUNG): 1.205
- MFI HCC1359_LUNG [10]: 3254.5 and 3202.5 and 4282 and 3759 and 4252
- Viability [10]: 1.0552
- AUC (HCC1419_BREAST): 1.157
- MFI HCC1419_BREAST [11]: 4554 and 3766 and 6250 and 4022 and 3342
- Viability [11]: 1.3281
- AUC (HCC1428_BREAST): 1.0418
- MFI HCC1428_BREAST [12]: 5601.5 and 4304.5 and 6512 and 4295 and 6602.5
- Viability [12]: 0.9769
- AUC (HCC1438_LUNG): 1.064
- MFI HCC1438_LUNG [13]: 3705.5 and 4037.5 and 3791 and 2958 and 2338
- Viability [13]: 1.029
- AUC (HCC1588_LUNG): 0.8674
- MFI HCC1588_LUNG (HCC1588_LUNG, pert_dose 6.10E-04): 12748 and 13169 and 10479 and 16252.5 and 12413.5
- AUC (HCC1806_BREAST): 1.223
- MFI HCC1806_BREAST [14]: 4998.5 and 5222.5 and 6609 and 6768 and 3833.5
- Viability [14]: 1.444
- AUC (HCC1937_BREAST): 1.259
- Viability (HCC1937_BREAST, pert_dose 6.10E-04): 0.8468
- AUC (HCC4006_LUNG): 1.075
- MFI HCC4006_LUNG [15]: 13511 and 17514.5 and 15021 and 17956 and 15891.5
- Viability [15]: 1.081
- AUC (HCT15_LARGE_INTESTINE): 1.231
- MFI HCT15_LARGE_INTESTINE [16]: 19712 and 17910 and 19958 and 21240.5 and 15477
- Viability [16]: 1.456
- AUC (HCT116_LARGE_INTESTINE): 0.9703
- MFI HCT116_LARGE_INTESTINE [17]: 29799 and 33721.5 and 25531.5 and 28789.5 and 30554.5
- Viability [17]: 1.204
- AUC (HDQP1_BREAST): 1.144
- MFI HDQP1_BREAST [18]: 7912.5 and 7534 and 9203 and 8805.5 and 8820
- Viability [18]: 1.159
- AUC (HEC1A_ENDOMETRIUM): 0.9522
- AUC (HEC1B_ENDOMETRIUM): 1.073
- Viability (HEC1B_ENDOMETRIUM, pert_dose 6.10E-04): 0.9409
- AUC (HEC6_ENDOMETRIUM): 1.185
